Publication PMC11724466, “PRMT5 inhibition has a potent anti-tumor activity against adenoid cystic carcinoma of salivary glands” (Journal of Experimental & Clinical Cancer Research : CR, 2025)

Molecular target: T1, PRMT5 (protein arginine methyl transferase 5) (Homo sapiens, UniProt O14744)
T1 construct: human recombinant PRMT5/MEP50 complex; with MEP50
Test: scintillation proximity radiometric methyltransferase assay (3H-SAM, histone H4 peptide); jump dilution
Assay type: biochemical

T1 sequence (O14744 2-637): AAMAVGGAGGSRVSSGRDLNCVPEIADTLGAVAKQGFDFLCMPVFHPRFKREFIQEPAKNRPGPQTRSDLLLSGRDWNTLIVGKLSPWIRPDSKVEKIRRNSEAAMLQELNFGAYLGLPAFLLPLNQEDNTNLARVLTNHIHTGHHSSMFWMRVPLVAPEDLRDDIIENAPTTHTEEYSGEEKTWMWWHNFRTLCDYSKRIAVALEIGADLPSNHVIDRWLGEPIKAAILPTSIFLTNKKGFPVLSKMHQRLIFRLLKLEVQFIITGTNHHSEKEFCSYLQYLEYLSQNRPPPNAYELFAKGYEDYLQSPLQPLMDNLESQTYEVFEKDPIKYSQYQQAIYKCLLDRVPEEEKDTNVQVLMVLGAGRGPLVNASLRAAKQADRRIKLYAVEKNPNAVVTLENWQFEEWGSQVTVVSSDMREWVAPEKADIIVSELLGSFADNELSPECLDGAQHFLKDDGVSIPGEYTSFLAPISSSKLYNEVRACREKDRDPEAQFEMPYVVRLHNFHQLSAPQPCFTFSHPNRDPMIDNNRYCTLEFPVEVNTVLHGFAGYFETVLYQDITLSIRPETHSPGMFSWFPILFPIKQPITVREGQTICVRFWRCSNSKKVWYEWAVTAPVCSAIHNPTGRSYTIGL
T1 sequence (Q9BQA1 whole entry partner): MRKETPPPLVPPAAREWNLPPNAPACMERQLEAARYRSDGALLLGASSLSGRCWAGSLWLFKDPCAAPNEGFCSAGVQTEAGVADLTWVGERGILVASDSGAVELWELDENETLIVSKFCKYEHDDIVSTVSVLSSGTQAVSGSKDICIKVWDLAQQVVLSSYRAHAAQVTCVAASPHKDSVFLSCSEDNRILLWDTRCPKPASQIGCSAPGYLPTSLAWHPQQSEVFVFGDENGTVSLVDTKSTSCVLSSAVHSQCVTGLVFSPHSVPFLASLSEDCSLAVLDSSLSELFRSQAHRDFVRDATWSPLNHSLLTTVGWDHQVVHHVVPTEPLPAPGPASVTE

IC50: 10.8 nM
Substance: PRT543
